Laboratory results: article PMC12344719 (Journal of Chemical Information and Modeling, 2025)
Read-outs that look alike come from different tables or passages of the source.

Key:
SARS-CoV-2 Mpro = conditions: cited from earlier work
in vitro = conditions: African green monkey (Cercopithecus aethiops)
Vero cells [1] = conditions: African green monkey (Cercopithecus aethiops)
SARS-CoV-2 [2] = assay: microbe, parasite or virus in culture; format: cell-based
SARS-CoV-2 [3] = format: cell-based
Vero cells [4] = tested on: Vero cells; parameters: method as in Yang et al.; conditions: 72 h condition without hypoxia, ref Yang et al.; cited from earlier work
[5] = parameters: method as in Liu et al.; conditions: ref Liu et al.; cited from earlier work
[6] = toxicological studies in animals; cited from earlier work

## O=C[C@H](C[C@@H]1CCNC1=O)NC(=O)[C@H](Cc1cccc(F)c1)NC(=O)c1cc2ccccc2[nH]1 [11b]
SARS-CoV-2 Mpro
  IC50: 0.04 µM

## COc1ccccc1OCCCOc1ccc([N+](=O)[O-])cc1Cl [MolPort-002-201-288]
In vitro
  CC50: 20.6 µM
Vero cells [1]
  CC20: 3.031 µM

## CCOc1ccc2nc(C(=O)CCC(=O)OC(CCl)CCl)sc2c1 [MolPort-004-953-083]
In vitro
  CC50 at 72 h: 45.5 µM
Vero cells [1]; 72 h
  CC20: 29.30 µM

## Cc1cccc(C)c1NC(=O)CCCSCc1cccc(S(=O)(=O)N(C)C)c1 [MolPort-005-766-143]
In vitro
  CC50 at 72 h: 15.7 µM
Vero cells [1]; 72 h
  CC20: 3.532 µM

## C=CCNC(=O)c1csc(-c2ccc(OCCC)cc2F)n1 [MolPort-006-606-981]
In vitro
  CC50: 19.4 µM
Vero cells [1]
  CC20: 3.964 µM

## CN(CCCCCc1cc(-c2cccc(F)c2)n[nH]1)C(=O)C(C)(C)C [MolPort-009-093-282]
In vitro
  CC50: 47.1 µM
Vero cells [1]
  CC20: 9.418 µM

## CCS(=O)(=O)N(C)c1ccc2sc(C(=O)NCCC3=CCCCC3)cc2c1 [MolPort-010-778-422]
In vitro
  CC50 at 72 h: 5.07 µM
SARS-CoV-2 [2]
  SI (selectivity index): 569.9
SARS-CoV-2 [2]; Severe acute respiratory syndrome coronavirus 2, Vero, 2 h
  IC50: 0.0089 µM
Vero cells [1]; 72 h
  CC20: 2.258 µM
SARS-CoV-2 [3]
  log reduction (viral titer): 5.6 log

## COc1cccc(SCC(=O)N(Cc2ccccn2)C2CCCCC2)c1 [MolPort-045-920-671]
In vitro
  CC50 at 72 h: 16.1 µM
Vero cells [1]; 72 h
  CC20: 2.772 µM

## CC(=O)c1[nH]c(C)c(C(=O)N(C)CCCOc2cccc(Cl)c2)c1C [MolPort-046-186-743]
In vitro
  CC50 at 72 h: 27.6 µM
Vero cells [1]; 72 h
  CC20: 7.583 µM

## CCN(CC)CCCC(C)Nc1ccnc2cc(Cl)ccc12 (stereo not shown) [chloroquine]
Vero cells [4]
  CC50: 92.4 µM
[5]
  CC50: 273 µM

## CCN(CCO)CCCC(C)Nc1ccnc2cc(Cl)ccc12 (stereo not shown) [hydroxychloroquine]
[6]
  less toxic than chloroquine: approximately 40%
Vero cells [4]
  CC50: 56.2 µM
[5]
  CC50: 250 µM
